Experimental data published in patent US11351151B2, “Compound having anticancer activity and preparation method and application” (3D Medicines (Beijing) Co., Ltd., priority 2016, dated 2022).

Legend:
Format in all cases: cell-based
[1] = tested on: DU145; experiment: Cell proliferation assay (Alamar Blue); details: Homo sapiens, DU-145, 144 h; DU145 tumor cell line; 6 days
Summary of the method: (§1)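 6 d continuous exposure, 37 °C/5% CO2; 9 conc., 3.16× steps from 30 or 100 μM; n=2/conc. Readout resazurin fluor. 560/590 nm, 1–4 h dye. % inhib. normalised to 0%/100% inhibition controls → IC50 (4-param).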

[2] = tested on: HCCLM3; experiment: Cell proliferation assay (Alamar Blue); details: Homo sapiens, 144 h; HCCLM3 tumor cell line; 6 days
Summary of the method: as §1

[3] = tested on: HUH1; experiment: Cell proliferation assay (Alamar Blue); details: Homo sapiens, HuH-1, 144 h; HUH1 liver cancer cell line; 6 days
Summary of the method: as §1

[4] = tested on: JHH6; experiment: Cell proliferation assay (Alamar Blue); details: 144 h; JHH6 liver cancer cell line; 6 days
Summary of the method: as §1

[5] = tested on: LNCAP-clone-FGC; experiment: Cell proliferation assay (Alamar Blue); details: Homo sapiens, 144 h; LNCAP-clone-FGC tumor cell line; 6 days
Summary of the method: as §1

[6] = tested on: SNU182; experiment: Cell proliferation assay (Alamar Blue); details: Homo sapiens, SNU-182, 144 h; SNU182 liver cancer cell line; 6 days
Summary of the method: as §1

[7] = tested on: SNU761; experiment: Cell proliferation assay (Alamar Blue); details: 144 h; SNU761 liver cancer cell line; 6 days
Summary of the method: as §1

[8] = tested on: 26 liver cancer cell lines; experiment: Cell proliferation assay (Alamar Blue), summary over liver cancer lines
Procedure: (§2) 1. Instruments and Materials • Thermo 311 CO2 incubator; Haier biosafety cabinet; Molecular Devices microplate reader; Xiangyi brand L530 desktop low speed centrifuge; Olympus IX51 inverted fluorescence microscope, DMEM, RPMI 1640, MEM, DMEM/F12 1:1 medium, Fetal bovine serum, 0.25% trypsin solution, phosphate buffer (Thermo Fisher Shanghai Co., Ltd.); sigma dimethyl sulfoxide (DMSO), resazurin; 54 commercial tumor cell lines (including 26 liver cancer cell lines). Experimental drugs: compounds 1-12 and active drug Linifanib; chemotherapeutic drug Doxorubicin (HY-15142; Shanghai Qianyuan Biomedical Technology Co., Ltd.).
2. […] The proportion and quantity of passage were determined by experimental needs. The ratio of subculture of this cell line was generally 1:2^˜1:3. • 2.2 inhibition effect on the proliferation of different tumor cell lines • Cell test: 54 cell lines in logarithmic growth phase were inoculated in 96-well culture plates at 500^˜1×10^4/well (the optimal seeding density of each cell line was determined in pre-experiment), After incubating at 37° C. for 4 h in a 5% CO2 humidification incubator, added 10 μL of compounds 1-12 or Linifanib to each well, and tested 9 drug concentration gradients for each compound (diluted from the highest concentration of the test by 3.16 times). […]

[9] = tested on: 54 commercial tumor cell lines; experiment: Cell proliferation assay (Alamar Blue), summary over the panel; details: in almost all tumor cell lines
Procedure: as §2
2. Experimental Methods • 2.1 Cultivation of different cell lines • 54 cell lines were cultured in a culture medium containing fetal bovine serum and placed in a 5% CO 2 incubator at 37° C. for incubation. The cells were all grown in an adherent state, and the growth was observed under an inverted microscope, and subculture was performed when the cell confluence rate reached 80%-90%. The proportion and quantity of passage were determined by experimental needs. The ratio of subculture of this cell line was generally 1:2^˜1:3. • 2.2 inhibition effect on the proliferation of different tumor cell lines • Cell test: 54 cell lines in logarithmic growth phase were inoculated in 96-well culture plates at 500^˜1×10^4/well (the optimal seeding density of each cell line was determined in pre-experiment), After incubating at 37° C. for 4 h in a 5% CO2 humidification incubator, added 10 μL of compounds 1-12 or Linifanib to each well, and tested 9 drug concentration gradients for each compound (diluted from the highest concentration of the test by 3.16 times). The solubility of each compound was different at a starting concentration of 30 or 100 μM, respectively. The QC reference compound Doxorubicin was added simultaneously to each cell line test, and the final drug concentrations were 10, 3.16, 1, 0.31, 0.1, 0.03, 0.01, 0.003, and 0.001 μM, respectively. In addition, a positive control group (100% inhibition) and a negative control group (0% inhibition) were set at the same time. The drug group was repeated for 2 wells per concentration, and the positive control group and the negative control group were repeated for 6 wells. After the culture was continued for 6 days in the incubator, AlamarBlue test operation was followed; • AlamarBlue test procedure: Incubated with 10 μL of AlamarBlue reagent per well for 1-4 h, shook for 1-2 min, MD microplate reader EX: 560 nm, EM: 590 nm wavelength to measure fluorescence, recorded the results, calculated the cell inhibition rate of the compound of the invention. […]

Compound	IC50 [1]	IC50 [2]	IC50 [3]	IC50 [5]	IC50 [6]	IC50 [7]	IC50 ([8]; nearly half of the liver cancer cell lines (12/26, 46%), moderately sensitive)	IC50 values compared with Linifanib [9]	IC50 [4]	difference of IC50 values versus Linifanib ([8]; most of the liver cancer cell lines (15/26, 58%))
Cc1ccc(F)c(NC(=O)Nc2ccc(-c3cccc4c3c(N)nn4C(=O)CCCCCNC(=O)C[C@H](N)C(=O)N[C@@H](CCC(=O)N[C@@H](CCC(=O)N[C@@H](CCC(=O)N[C@@H](CCC(=O)N[C@@H](CCC(=O)N[C@@H](CCC(=O)N[C@@H](CCC(=O)N[C@@H](CCC(=O)N[C@@H](CCC(=O)O)C(=O)O)C(=O)O)C(=O)O)C(=O)O)C(=O)O)C(=O)O)C(=O)O)C(=O)O)C(=O)O)cc2)c1 [Compound 6]	63.3 µM	> 100 µM	> 100 µM	> 100 µM	> 100 µM	> 100 µM	–	–	> 100 µM	–
Cc1ccc(F)c(NC(=O)Nc2ccc(-c3cccc4c3c(N)nn4C(=O)CCCCCCCCCCCNC(=O)C[C@H](N)C(=O)N[C@@H](CCC(=O)O)C(=O)O)cc2)c1 [Compound 7]	17.2 µM	> 100 µM	21.2 µM	26.7 µM	> 100 µM	> 100 µM	–	–	23.6 µM	–
Cc1ccc(F)c(NC(=O)Nc2ccc(-c3cccc4c3c(N)nn4C(=O)C[C@H](N)C(=O)O)cc2)c1 [Compound 10]	1.34 µM	8.97 µM	3.47 µM	5.13 µM	13.3 µM	9.04 µM	–	close to those of Linifanib	2.46 µM	–
Cc1ccc(F)c(NC(=O)Nc2ccc(-c3cccc4c3c(N)nn4C(=O)CCCCCCCCCCCNC(=O)C[C@H](N)C(=O)N[C@@H](CCC(=O)N[C@@H](CCC(=O)N[C@@H](CCC(=O)N[C@@H](CCC(=O)N[C@@H](CCC(=O)N[C@@H](CCC(=O)N[C@@H](CCC(=O)N[C@@H](CCC(=O)N[C@@H](CCC(=O)O)C(=O)O)C(=O)O)C(=O)O)C(=O)O)C(=O)O)C(=O)O)C(=O)O)C(=O)O)C(=O)O)cc2)c1 [Compound 9]	34.5 µM	> 100 µM	52.4 µM	> 100 µM	> 100 µM	> 100 µM	–	–	65.3 µM	–
Cc1ccc(F)c(NC(=O)Nc2ccc(-c3cccc4c3c(N)nn4C(=O)CCCCCNC(=O)C[C@H](N)C(=O)N[C@@H](CCC(=O)N[C@@H](CCC(=O)N[C@@H](CCC(=O)N[C@@H](CCC(=O)O)C(=O)O)C(=O)O)C(=O)O)C(=O)O)cc2)c1 [Compound 5]	55.4 µM	> 100 µM	82.3 µM	> 100 µM	> 100 µM	> 100 µM	–	–	79.3 µM	–
Cc1ccc(F)c(NC(=O)Nc2ccc(-c3cccc4c3c(N)nn4C(=O)CCCCCNC(=O)C[C@H](N)C(=O)O)cc2)c1 [Compound 11]	26.4 µM	74.3 µM	50.6 µM	70.9 µM	> 100 µM	77 µM	–	–	54.4 µM	–
Cc1ccc(F)c(NC(=O)Nc2ccc(-c3cccc4c3c(N)nn4C(=O)CCCCCCCCCCCNC(=O)C[C@H](N)C(=O)N[C@@H](CCC(=O)N[C@@H](CCC(=O)N[C@@H](CCC(=O)N[C@@H](CCC(=O)O)C(=O)O)C(=O)O)C(=O)O)C(=O)O)cc2)c1 [Compound 8]	20.7 µM	> 100 µM	31.9 µM	> 100 µM	> 100 µM	80.1 µM	–	–	41.7 µM	more than 8 times

Second part, led by results:

IC50 [1]	IC50 [2]	IC50 [3]	IC50 [5]	IC50 [6]	IC50 [7]	IC50 ([8]; nearly half of the liver cancer cell lines (12/26, 46%), moderately sensitive)	IC50 values compared with Linifanib [9]	Compound	IC50 [4]	difference of IC50 values versus Linifanib ([8]; most of the liver cancer cell lines (15/26, 58%))
> 30 µM	> 30 µM	> 30 µM	> 30 µM	19.5 µM	> 30 µM	–	–	Cc1ccc(F)c(NC(=O)Nc2ccc(-c3cccc4c3c(N)nn4C(=O)CCCCCCCCCCCNC(=O)C[C@H](N)C(=O)O)cc2)c1 [Compound 12]	> 30 µM	–
5.01 µM	6.67 µM	3.25 µM	11.3 µM	15.2 µM	8.98 µM	< 5 µM	–	Cc1ccc(F)c(NC(=O)Nc2ccc(-c3cccc4[nH]nc(N)c34)cc2)c1 [Linifanib, reference compound]	4.11 µM	–
2.76 µM	11.4 µM	4.42 µM	5.47 µM	19.9 µM	9.53 µM	–	close to those of Linifanib	Cc1ccc(F)c(NC(=O)Nc2ccc(-c3cccc4c3c(N)nn4C(=O)C[C@H](N)C(=O)N[C@@H](CCC(=O)O)C(=O)O)cc2)c1 [Compound 1]	3 µM	–
4.89 µM	15.8 µM	6.71 µM	6.34 µM	32.1 µM	15.3 µM	–	close to those of Linifanib	Cc1ccc(F)c(NC(=O)Nc2ccc(-c3cccc4c3c(N)nn4C(=O)C[C@H](N)C(=O)N[C@@H](CCC(=O)N[C@@H](CCC(=O)N[C@@H](CCC(=O)N[C@@H](CCC(=O)O)C(=O)O)C(=O)O)C(=O)O)C(=O)O)cc2)c1 [Compound 2]	4.38 µM	–
7.38 µM	25.7 µM	7.93 µM	15.4 µM	54.2 µM	29.1 µM	–	close to those of Linifanib	Cc1ccc(F)c(NC(=O)Nc2ccc(-c3cccc4c3c(N)nn4C(=O)C[C@H](N)C(=O)N[C@@H](CCC(=O)N[C@@H](CCC(=O)N[C@@H](CCC(=O)N[C@@H](CCC(=O)N[C@@H](CCC(=O)N[C@@H](CCC(=O)N[C@@H](CCC(=O)N[C@@H](CCC(=O)N[C@@H](CCC(=O)O)C(=O)O)C(=O)O)C(=O)O)C(=O)O)C(=O)O)C(=O)O)C(=O)O)C(=O)O)C(=O)O)cc2)c1 [Compound 3]	7.51 µM	–
38 µM	82 µM	66.8 µM	75.3 µM	> 100 µM	85 µM	–	–	Cc1ccc(F)c(NC(=O)Nc2ccc(-c3cccc4c3c(N)nn4C(=O)CCCCCNC(=O)C[C@H](N)C(=O)N[C@@H](CCC(=O)O)C(=O)O)cc2)c1 [Compound 4]	67.7 µM	–
